Data taken from US9233107B2, “Compositions and methods for the treatment of progressive multifocal leukoencephalopathy (PML)” (Biogen MA Inc., priority 2007, dated 2016).
Counter-ions that a name gives are not always drawn. Like-named read-outs stand apart in the source and are kept apart here.

Experiments:
in vitro = conditions: human
Description: (§1) SV40 transformed glial cells were seeded in 10% FBS media. The cells were seeded at 2000 cells per well in 75 μl of media per well. On day 2, the media was removed and replaced by 35 μl of a 1× concentrated drug aliquot combined with a 100× diluted JCV Turbo aliquot in 35 μl of 2% FBS media (JCV Turbo is a hybrid Mad-1/SVEΔ virus constructed by insertion of the regulatory region of SV40 into the regulatory region of the Mad-1 strain of JCV (Mad-1/SVE), Vacante et al., Virology 1989, 170: 353-361). The cells were incubated for an hour, after which another 65 uL aliquot of 1× concentrated drug in 2% FBS was added. On day 5 the cells were stained with DAPI (for total cell number) and with a mouse monoclonal antibody against SV40 VP1, which cross reacts with the JCV VP1 protein. […] The information is tabulated as % inhibition (as measured by the number and percentage of JCV positive cells).
(§2) JCV Infectivity Assay: SVG-A cells were seeded at 2,000 cells/well/0.075 ml of culture media in 96 flat-bottom well plate (Corning, N.Y.). The next day compounds were prepared in assay medium (2% heat-inactivated fetal bovine serum, 4 mM L-glutamine, 1×MEM). A master viral plate was prepared by mixing equal volumes of [2×] compound and [2×] diluted virus for the final 1× concentration of the compound and the virus. The plate containing cells was gently inverted and shaken to remove media. From the master plate, 0.035 ml compound/virus was added to designated wells. The cells were incubated with the compound/virus mixture for 60 minutes in a humidified 37° C. CO2 incubator. At that time final concentration of the drug in media was added to designated wells to bring the final volume up to 0.1 ml/well. The plates were incubated for an additional three days, the cells were then washed once with 1×PBS, and fixed in 2% paraformaldehyde/1×PBS for 30 minutes at room temperature. The fixative was removed and the cells were solubilized with 0.5% Triton X100 in PBS for an additional 30 minutes. Infection by Mad-1/SVEΔ virus was visualized by staining with PAB597, a monoclonal antibody against the major capsid protein VP1, the cells were incubated with 0.05 ml of PAB597 (2 μg/ml in 1×PBS) for 60 minutes at 37° C. Following a wash step with 1×PBS, primary antibody was detected with an Alexa-Fluor 488-labeled goat anti-mouse secondary antibody at 1:100 dilution in 1×PBS, cells were counterstained with DAPI at 1 μg/ml (0.05 ml/well) for 30 minutes at 37° C. Cells were washed with 1×PBS and 0.1 ml 1×PBS was added to cells. Field images of each well were acquired and analyzed using the Cellomics ArrayScan (Thermo Scientific Inc, Waltham, Mass.) using the Target Activation software. […] The cells are seeded at 4,000 cells/well/0.075 ml of culture media in 96 flat-bottom well plate (Corning). The culture media is used for the infection. The length of the infection is six to ten days (instead of the three days for SVG-A cells).
(§3) The primary assay employed an SVG-A cell line and JCV Mad1/SVEΔ viral strain.

SVG-A cells = experiment: Total cell number (DAPI+ events) / cytotoxicity in the JCV infectivity assay; conditions: for inhibition at 10 µM: Homo sapiens, SVG-A, read-out: % Inhibition total Cell Number @10 uM
Description: as §1, §2, §3

JCV strain Mad1/SVEΔ = experiment: microbe, parasite or virus in culture; format: cell-based, JC polyomavirus (JCV); conditions: for inhibition at 10 µM / IC50: JC polyomavirus
Description: as §1, §2
Calculations: The rate of JCV infection was calculated by normalizing the number of JCV infected cells by the total number of nucleated cells as % JCV^+ cells=((total # VP1^+ cells)/(total # DAPI^+ cells))*100%. The % of viral inhibition by a compound was calculated using a JCV infection rate instead of using total number of JCV infected cells (e.g., VP1^+ cells).

[1] = published PK data, cited from earlier work
Mad1/SVEΔ JCV = experiment: JCV infection of primary human fetal astrocytes; format: cell-based, JC polyomavirus (JCV)
Description: CO2 incubator. […] The culture media is used for the infection.
FIG. 5A illustrates SVG-A cells with Mad1/SVEΔ JCV (n=12) virus. FIG. 5B illustrates primary human fetal astrocytes with Mad1/SVEΔ JCV.
Since during PML many cells are already infected with JC virus, in some embodiments a drug candidate for treatment of PML may be selected as one that can inhibit viral life cycle in already infected cells. […] In FIG. 7 various concentration of the drug were added to the culture of primary human fetal astrocytes infected with JC virus at the same time as virus (circles; T=0), 3 hours after virus addition (squires; T=3 h), or 24 hours after (triangles; T=24 h). Ten days after infection with the virus cells were fixed and number of virally infected cells was enumerated. Results of a representative experiment out of 4 different experiments with primary astrocytes or SVG-A cells are shown.

JCV strain Mad-4 = JCV strain Mad-4 infection of SVG-A cells; format: cell-based, JC polyomavirus (JCV); conditions: 5 independent experiments
[2] = human, in vivo
Description: The published literature was reviewed for information on pharmacokinetics and brain distribution of these drugs in humans and in animal models. Since JC virus uncontrollably replicates in the oligodendrocytes and astrocytes of the effected individuals during PML but not all drugs are capable of crossing blood brain barrier it would be advantageous for any potential PML therapy if the drug candidate is capable of achieving efficacious concentration in the brain.

JCV DNA replication = JCV DNA replication by qPCR (TAg probe) in SVG-A cells; format: cell-based, JC polyomavirus (JCV); conditions: 3 days after infection, compared with infection rate inhibition
[3] = # animal data; published PK data; cited from earlier work
[4] = Glial cell, read-out: % Inhibition (total #JCV+) @10 uM
[5] = SVG-A, read-out: % Inhibition (% JCV+) @10 uM

Row | SMILES | inhibition at 10 µM (SVG-A cells) [%] | inhibition at 10 µM (JCV strain Mad1/SVEΔ; [4]) [%] | IC50 (JCV strain Mad1/SVEΔ; SVG-A) [µM] | inhibition at 10 µM (JCV strain Mad1/SVEΔ; [5]) [%] | CC50 (in vitro) [µM] | also measured
1 | COc1ccc([C@@H]2Sc3ccccc3N(CCN(C)C)C(=O)[C@@H]2OC(C)=O)cc1 [DILTIAZEM HYDROCHLORIDE] | -4 | 20 | 8.5 | 24 | – | CC50 at 3 days (in vitro): > 40 µM
2 | CCC(=O)Nc1ccc(Cl)c(Cl)c1 [PROPANIL] | -12 | 12 | 7.8 | 21 | – | CC50 at 3 days (in vitro): > 40 µM
3 | Cc1c(Nc2ncccc2C(=O)O)cccc1C(F)(F)F [FLUNIXIN MEGLUMINE] | -4 | 30 | 16.6 | 33 | 47.7 | –
4 | OC(c1cc(C(F)(F)F)nc2c(C(F)(F)F)cccc12)C1CCCCN1 (racemic) [MEFLOQUINE, [2,8-bis(trifluoromethyl)quinolin-4-yl]-piperidin-2-ylmethanol] | 5 | 66 | 4 | 64 | – | Inhibition of total cell numbers (DAPI+ events) (SVG-A cells; at the drug concentrations of the dose response curves): less than 20%; CC50 (SVG-A cells; human, 3 days): 16.1 µM; anti-JCV activity in presence of cerebrospinal fluid (CSF), in words (JCV strain Mad1/SVEΔ; FIG. 10): not inhibited by cerebrospinal fluid (CSF); IC50 (JCV strain Mad1/SVEΔ; SVG-A, read-out: IC50 (in vitro efficacious concentration)): 3.9 ± 2.1 µM; Cmax ([1]; read-out: plasma Cmax): 6 µM; inhibition of JCV infection of primary human fetal astrocytes, in words (Mad1/SVEΔ JCV; compared with SVG-A cells): essentially the same efficacy as it inhibits viral infection in SVG-A cells; inhibition of cell infection when added 3 or 24 hours post infection, in words (Mad1/SVEΔ JCV; primary human fetal astrocytes, read ten days after infection): just as effective at inhibiting cell infection as it was when added to the cells together with the virus; inhibition of Mad4 infection of SVG-A cells, in words (JCV strain Mad-4): the same efficacy as Mad1/SVEΔ infection; Brain concentration, approximated [2]: 35 to 50 µM; percent of JCV DNA inhibition, in words (JCV DNA replication): almost overlaps the percent of infection rate inhibition
5 | COc1cc(C)c2c(=O)c(-c3ccccc3)coc2c1 [METHOXYVONE] | 15 | 38 | 17.2 | 27 | > 40 | –
6 | Cc1nccc2c1[nH]c1ccccc12 [HARMANE] | 4 | 24 | 14.4 | 22 | > 40 | –
7 | Cc1cccc(Nc2ccccc2C(=O)O)c1C [MEFENAMIC ACID] | 0 | 29 | 10.9 | 29 | – | Brain [3]: 0.8 µg/mL; plasma Cmax [1]: 10000 to 20000 ng/mL
8 | CC(=O)O[C@H]1C[C@@]2(C)[C@@H](C[C@@H](O)[C@H]3[C@@]4(C)CC[C@@H](O)[C@@H](C)[C@@H]4CC[C@@]32C)/C1=C(\CCC=C(C)C)C(=O)O [FUSIDIC ACID] | -2 | 39 | 8.6 | 40 | – | plasma Cmax [1]: 10000 to 90000 ng/mL
